Data on 1 compound can be found in ChEMBL document CHEMBL5625204, “Synthesis and pharmacodynamic evaluation of naphthalene derivatives against influenza A virus in vitro and in vivo” (Eur J Med Chem, 2023).

The nature of data set [1]: Selectivity index, ratio of CC50 for dog MDCK cells to EC50 for antiviral activity against Influenza A virus H1N1 (A/Virginia/ATCC2/2009) infected in MDCK cells. The data set is classed as toxicity, cell-based. The following applies: read-out: Ratio CC50/EC50.
Data set [2] concerns Influenza A virus. Kind of data set: Antiviral activity against Influenza A virus H1N1 infected in dog MDCK cells assessed as decrease in apoptosis by measuring proportion of necrotic cells at 50 uM measured after 72 hrs by AnnexinV-FITC/PI staining based flow cytometry (reference value: 2.47%). The format is functional. Details: scale not given: the % may be the effect or the level left. Background: Flow cytometry measures light scatter and fluorescence of single cells or particles in a stream.

In data set [3] the test system is Influenza A virus. Kind of data set: Antiviral activity against Influenza A virus H1N1 (A/Weiss/43)-infected in dog MDCK cells assessed as reduction in oxidative stress by measuring proportion of cells with excessive ROS accumulation at 50 uM treated at 2 hrs post-infection and measured after 36 hrs by DCFH-DA staining based flow cytometry (reference value: 30.6%). The format is functional. Details: scale not given: the % may be the effect or the level left.

The test system of data set [4] is Influenza A virus. Kind of data set: Antiviral activity against Influenza A virus H1N1 (A/Weiss/43)-infected in BALB/c mouse assessed as reduction in lung index at 50 mg/kg/day administered intranasally for 6 days starting from 3 hrs post-viral infection. The format is functional. The following applies: 144 h, route nas, time 6 day.
Data set [5] relates to Influenza A virus. Kind of data set: Antiviral activity against Influenza A virus H1N1 infected in dog MDCK cells assessed as decrease in apoptosis by measuring proportion of early apoptotic cells at 50 uM measured after 72 hrs by AnnexinV-FITC/PI staining based flow cytometry (reference value: 24.3%). The data set is classed as functional. On the set-up: scale not given: the % may be the effect or the level left.

Data set [6] has as its system Influenza A virus. Kind of data set: Antiviral activity against Influenza A virus H1N1 infected in dog MDCK cells assessed as decrease in apoptosis by measuring proportion of viable cells at 50 uM measured after 72 hrs by AnnexinV-FITC/PI staining based flow cytometry (reference value: 62.9%). The format is functional.
Data set [7] in a line: Cytotoxicity against dog MDCK cells assessed as reduction in cell viability incubated for 72 hrs by MTT assay. The data set is classed as toxicity, cell-based, Canis lupus familiaris. For orientation: Tetrazolium dyes change colour on reduction, which living cells bring about.
Data set [8] concerns Influenza A virus. Put plainly: Antiviral activity against Influenza A virus H3N2 (A/California/2004) infected in MDCK cells assessed as reduction of viral replication incubated for 72 hrs by TCID50 method. The data set is classed as functional, organism-based.
Data set [9] is described as follows: Selectivity index, ratio of CC50 for dog MDCK cells to EC50 for antiviral activity against Influenza A virus H3N2 (A/California/2004) infected in MDCK cells. The format is toxicity, cell-based. Conditions: read-out: Ratio CC50/EC50.
Data set [10] can be described thus: Selectivity index, ratio of CC50 for dog MDCK cells to EC50 for antiviral activity against Influenza A virus H1N1 (A/Weiss/43) infected in MDCK cells treated for 72 hrs after viral adsorption. The format is toxicity, cell-based. Conditions: read-out: Ratio CC50/EC50.
Data set [11] concerns Influenza A virus. Kind of data set: Antiviral activity against Influenza A virus H1N1 (A/Weiss/43) infected in MDCK cells assessed as reduction of viral replication treated for 72 hrs after viral adsorption by TCID50 method. The format is functional, organism-based.
For data set [12], the system named is Influenza A virus. Kind of data set: Antiviral activity against Influenza A virus H1N1 (A/Weiss/43)-infected in BALB/c mouse assessed as reduction in pulmonary inflammation at 50 mg/kg/day administered intranasally for 6 days starting from 3 hrs post-viral infection by Hematoxylin-Eosin staining based analysis. The data set is classed as functional, organism-based. Conditions: route nas, time 6.0 day.

Data set [13] has as its system Influenza A virus. Put plainly: Antiviral activity against Influenza A virus H1N1 (A/Virginia/ATCC2/2009) infected in MDCK cells assessed as reduction of viral replication incubated for 72 hrs by TCID50 method. The format is functional, organism-based.
Data set [14] concerns Influenza A virus. Kind of data set: Antiviral activity against Influenza A virus H1N1 (A/Weiss/43)-infected in dog MDCK cells assessed as reduction in oxidative stress by measuring proportion of normal cells at 50 uM treated at 2 hrs post-infection and measured after 36 hrs by DCFH-DA staining based flow cytometry (reference value: 69.4%). Details: scale not given: the % may be the effect or the level left. The data set is classed as functional.

The subject of data set [15] is Influenza A virus. Put plainly: Antiviral activity against Influenza A virus H1N1 infected in dog MDCK cells assessed as decrease in apoptosis by measuring proportion of late apoptotic cells at 50 uM measured after 72 hrs by AnnexinV-FITC/PI staining based flow cytometry (reference value: 10.3%). On the set-up: scale not given: the % may be the effect or the level left. The data set is classed as functional.

Activity calls are given as the source filed them. No cut-off for these calls is given here.

For `NC(=O)c1ncn([C@@H]2O[C@H](CO)[C@@H](O)[C@H]2O)n1` [RIBAVIRIN], the selectivity ratio amounted to 38.3 in data set [1] and 28.5 in data set [9]. For the same compound, the Activity in data set [2] was determined as 1.56%; in data set [3], 7.48%; in data set [5], 2.76%; in data set [6], 93.2%; in data set [14], 92.5%; in data set [15], 2.43%. In addition, in [4], the inhibition in vivo at 50 mg/kg/day amounted to 40%. Besides, the CC50 at 72 h in data set [7] is 707 µM. Also, the EC50 came out at 24.8 µM in data set [8], 13 µM in [11] and 18.5 µM in data set [13]. Further, the selectivity ratio at 72 h in [10] is 54.4. Also, in [12], the outcome was Active.

One may read the inhibition in vivo as the drop in the measured response relative to a control, in per cent. Broadly, the CC50 is the concentration at which the toxic effect on the cells reaches its halfway point. A word on the EC50: it is the concentration giving half of the maximal effect.
